Where “and” joins values, the source holds several entries; their conditions need not be identical. Identical values can stand only once.
Legend:
[1] = biological target: Mast/stem cell growth factor receptor Kit (Homo sapiens, UniProt P10721); test: Inhibition of human recombinant cKit by FRET assay
[2] = biological target: Serine/threonine-protein kinase B-raf (Homo sapiens, UniProt P15056); test: Inhibition of b-Raf
[3] = Volume of distribution at steady state in iv dosed ICR mouse; assay type: ADME, organism-based; details: in vivo, read-out: Vdss
[4] = system: MDA-MB-231; test: Inhibition of tumor growth in human MDA-MB-231 cells xenografted in athymic mouse at 50 mg/kg, po once daily after 9 days; assay type: functional; details: MDA-MB-231, 216 h
[5] = system: COLO 205; test: Inhibition of tumor growth in human Colo205 cells xenografted in athymic mouse at 50 mg/kg, po once daily after 9 days; assay type: functional; details: COLO 205, 216 h
[6] = AUC (1 to 5 hrs) in ICR mouse; assay type: ADME, organism-based; set-up: time 1-5 hr; details: plasma
[7] = biological target: Vascular endothelial growth factor receptor 2 (Homo sapiens, UniProt P35968); test: Inhibition of VEGFR2
Vascular endothelial growth factor receptor 2, sequence (P35968 whole entry): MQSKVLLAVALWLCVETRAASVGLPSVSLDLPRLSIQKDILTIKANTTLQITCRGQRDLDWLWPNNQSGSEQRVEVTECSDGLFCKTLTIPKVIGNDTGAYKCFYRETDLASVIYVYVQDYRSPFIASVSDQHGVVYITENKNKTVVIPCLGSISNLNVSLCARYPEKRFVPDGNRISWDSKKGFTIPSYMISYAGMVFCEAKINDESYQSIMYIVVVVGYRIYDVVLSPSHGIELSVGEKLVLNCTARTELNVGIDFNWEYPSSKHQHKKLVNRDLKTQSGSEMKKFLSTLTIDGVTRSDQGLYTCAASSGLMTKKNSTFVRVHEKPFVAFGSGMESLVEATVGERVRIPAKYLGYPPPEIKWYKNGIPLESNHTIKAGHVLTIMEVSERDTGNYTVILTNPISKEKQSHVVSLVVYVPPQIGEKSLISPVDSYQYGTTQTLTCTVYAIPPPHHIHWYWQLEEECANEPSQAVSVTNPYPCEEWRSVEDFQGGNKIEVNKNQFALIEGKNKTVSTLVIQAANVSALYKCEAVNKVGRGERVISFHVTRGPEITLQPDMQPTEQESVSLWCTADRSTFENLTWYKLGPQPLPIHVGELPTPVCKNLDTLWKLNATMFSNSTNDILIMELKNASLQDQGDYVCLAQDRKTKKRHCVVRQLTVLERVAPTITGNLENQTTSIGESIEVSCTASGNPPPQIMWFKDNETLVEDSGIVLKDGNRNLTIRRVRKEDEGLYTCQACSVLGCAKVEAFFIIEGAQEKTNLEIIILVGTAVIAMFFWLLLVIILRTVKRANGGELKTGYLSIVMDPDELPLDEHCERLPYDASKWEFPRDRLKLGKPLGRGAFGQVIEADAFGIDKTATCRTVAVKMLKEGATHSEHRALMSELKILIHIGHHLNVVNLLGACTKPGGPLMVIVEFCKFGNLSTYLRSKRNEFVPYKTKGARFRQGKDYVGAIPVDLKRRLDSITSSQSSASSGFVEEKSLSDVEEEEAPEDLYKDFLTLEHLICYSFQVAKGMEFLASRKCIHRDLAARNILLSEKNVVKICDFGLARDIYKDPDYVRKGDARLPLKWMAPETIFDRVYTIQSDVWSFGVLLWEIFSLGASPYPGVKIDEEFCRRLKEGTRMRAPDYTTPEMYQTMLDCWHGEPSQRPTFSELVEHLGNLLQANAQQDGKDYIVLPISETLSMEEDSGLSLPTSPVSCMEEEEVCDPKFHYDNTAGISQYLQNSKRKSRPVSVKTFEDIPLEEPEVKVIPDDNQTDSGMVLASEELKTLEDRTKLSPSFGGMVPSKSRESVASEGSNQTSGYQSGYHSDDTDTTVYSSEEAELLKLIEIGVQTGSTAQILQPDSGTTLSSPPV

[8] = Cmax in ICR mouse at 25 mg/kg; assay type: ADME, organism-based; set-up: dose 25 mg/kg; details: in vivo
[9] = system: NCI-H460; test: Inhibition of tumor growth in human NCI-H460 NSCLC cells xenografted in athymic mouse at 50 mg/kg, po once daily after 9 days; assay type: functional; details: NCI-H460, 216 h
[10] = AUC in ICR mouse at 25 mg/kg, po; assay type: ADME, organism-based; set-up: dose 25 mg/kg, route oral; details: plasma
[11] = Cmax in ICR mouse at 15 mg/kg; assay type: ADME, organism-based; set-up: dose 15 mg/kg; details: in vivo
[12] = AUC (0 to 5 hrs) in ICR mouse at 25 mg/kg, po; assay type: ADME, organism-based; set-up: time < 4 hr, dose 25 mg/kg, route oral; details: plasma

Mast/stem cell growth factor receptor Kit, sequence (P10721 whole entry): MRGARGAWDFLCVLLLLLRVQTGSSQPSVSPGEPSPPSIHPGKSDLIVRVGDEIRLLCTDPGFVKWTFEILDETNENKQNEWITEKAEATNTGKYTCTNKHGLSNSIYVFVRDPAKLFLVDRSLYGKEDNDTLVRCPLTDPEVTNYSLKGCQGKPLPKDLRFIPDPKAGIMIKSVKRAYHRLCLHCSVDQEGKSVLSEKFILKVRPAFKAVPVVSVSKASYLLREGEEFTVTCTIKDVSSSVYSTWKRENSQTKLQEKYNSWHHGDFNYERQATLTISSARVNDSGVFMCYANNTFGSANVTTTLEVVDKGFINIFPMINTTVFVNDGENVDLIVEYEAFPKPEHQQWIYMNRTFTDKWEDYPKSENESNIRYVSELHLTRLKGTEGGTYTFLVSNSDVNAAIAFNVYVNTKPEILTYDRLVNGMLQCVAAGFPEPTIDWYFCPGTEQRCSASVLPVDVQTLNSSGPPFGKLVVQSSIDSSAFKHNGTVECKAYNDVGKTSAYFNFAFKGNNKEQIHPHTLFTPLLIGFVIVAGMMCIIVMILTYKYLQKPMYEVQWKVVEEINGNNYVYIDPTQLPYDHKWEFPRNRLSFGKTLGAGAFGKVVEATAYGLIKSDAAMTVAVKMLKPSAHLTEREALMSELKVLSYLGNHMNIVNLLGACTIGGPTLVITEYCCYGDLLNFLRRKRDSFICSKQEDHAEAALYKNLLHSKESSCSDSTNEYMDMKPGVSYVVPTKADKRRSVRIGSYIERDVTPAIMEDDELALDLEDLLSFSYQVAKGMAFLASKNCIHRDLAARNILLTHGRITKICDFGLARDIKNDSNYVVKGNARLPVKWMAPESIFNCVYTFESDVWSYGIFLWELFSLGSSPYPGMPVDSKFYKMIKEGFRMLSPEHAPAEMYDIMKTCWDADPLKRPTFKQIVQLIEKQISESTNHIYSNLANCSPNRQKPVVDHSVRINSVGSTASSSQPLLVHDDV
Serine/threonine-protein kinase B-raf, sequence (P15056 whole entry): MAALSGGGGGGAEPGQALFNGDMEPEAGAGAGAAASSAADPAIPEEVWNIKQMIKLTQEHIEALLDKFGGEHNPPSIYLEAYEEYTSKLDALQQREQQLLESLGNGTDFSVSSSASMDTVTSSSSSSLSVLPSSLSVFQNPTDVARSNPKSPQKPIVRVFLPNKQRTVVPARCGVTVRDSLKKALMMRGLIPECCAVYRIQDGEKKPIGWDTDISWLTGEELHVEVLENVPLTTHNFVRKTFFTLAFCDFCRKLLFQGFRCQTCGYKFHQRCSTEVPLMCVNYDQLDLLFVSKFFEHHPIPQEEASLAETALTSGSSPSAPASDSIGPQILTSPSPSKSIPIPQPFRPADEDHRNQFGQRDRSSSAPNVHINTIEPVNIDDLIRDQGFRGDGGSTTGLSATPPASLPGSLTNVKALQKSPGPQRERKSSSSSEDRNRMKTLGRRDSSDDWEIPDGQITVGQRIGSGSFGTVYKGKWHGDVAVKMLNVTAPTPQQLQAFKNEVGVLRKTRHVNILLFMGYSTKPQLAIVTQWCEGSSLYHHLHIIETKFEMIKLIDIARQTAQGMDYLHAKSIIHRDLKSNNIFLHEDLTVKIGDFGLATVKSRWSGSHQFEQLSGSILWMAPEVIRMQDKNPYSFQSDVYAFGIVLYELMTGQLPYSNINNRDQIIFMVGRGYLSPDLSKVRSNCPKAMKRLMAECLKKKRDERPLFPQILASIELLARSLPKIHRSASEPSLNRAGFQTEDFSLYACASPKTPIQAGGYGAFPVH

IC50 [1] | IC50 [2] | SMILES | also measured
17 nM | 221 nM | CS(=O)(=O)CCNC(=O)c1cc(CNc2ccccc2C(=O)Nc2ccc3c(c2)OC(F)(F)O3)ccn1 | 
38 nM | 497 nM | COCCNC(=O)c1cc(CNc2ccccc2C(=O)Nc2ccc3c(c2)OC(F)(F)O3)ccn1 | 
25 nM | 594 nM | CS(=O)(=O)Nc1cc(CNc2ccccc2C(=O)Nc2ccc3c(c2)OC(F)(F)O3)ccn1 | 
3 nM | 26 nM | CNc1nccc(CNc2ccccc2C(=O)Nc2ccc3c(c2)OC(F)(F)O3)n1 | 
18 nM | 397 nM | O=C(NCCO)c1cc(CNc2ccccc2C(=O)Nc2ccc3c(c2)OC(F)(F)O3)ccn1 | 
19 nM | 1030 nM | COCCCNC(=O)c1cc(CNc2ccccc2C(=O)Nc2ccc3c(c2)OC(F)(F)O3)ccn1 | 
25 nM | 1240 nM | CNC(=O)c1cc(CNc2ncsc2C(=O)Nc2ccc3c(c2)OC(F)(F)O3)ccn1 | 
5 nM |  | CNC(=O)Nc1ccc(CNc2ncsc2C(=O)Nc2ccc3c(c2)OC(F)(F)O3)cn1 | Vd [3]: 0.151 L/kg; inhibition in vivo at 50 mg/kg [4]: 90%; inhibition in vivo at 50 mg/kg [5]: 84%; AUC(0-t) [6]: 538 µM·h; IC50 [7]: 3 nM; Cmax [8]: 124 µM; inhibition in vivo at 50 mg/kg [9]: 70%
4 nM | 165 nM | O=C(Nc1ccc2c(c1)OC(F)(F)O2)c1ccccc1NCc1ccnc(NCCOCCO)c1 | 
5 nM | 45 nM | CNC(=O)c1cc(CNc2ccccc2C(=O)Nc2ccc3c(c2)OC(F)(F)O3)ccn1 | AUC [10]: 40 µM·h
12 nM | 156 nM | COCCCNc1cc(CNc2ccccc2C(=O)Nc2ccc3c(c2)OC(F)(F)O3)ccn1 | 
12 nM |  | CNC(=O)Nc1ccc(CNc2c(C(=O)Nc3ccc4c(c3)OC(F)(F)C(F)(F)O4)cnn2C)cn1 | Cmax [11]: 6 µM; AUC(0-t) [6]: 19 µM·h; IC50 [7]: 43 nM
7 nM | 90 nM | CCNC(=O)Nc1cc(CNc2ccccc2C(=O)Nc2ccc3c(c2)OC(F)(F)O3)ccn1 | AUC(0-t) at 4 h [12]: > 400 µM·h
4 nM |  | CCNC(=O)Nc1ccc(CNc2ncsc2C(=O)Nc2ccc3c(c2)OC(F)(F)O3)cn1 | Vd [3]: 0.24 L/kg; inhibition in vivo at 50 mg/kg [4]: 92%; inhibition in vivo at 50 mg/kg [5]: 86%; AUC(0-t) [6]: 255 µM·h; IC50 [7]: 7 nM; Cmax [8]: 64 µM; inhibition in vivo at 50 mg/kg [9]: 79%
2 nM | 34 nM | NC(=O)c1cc(CNc2ccccc2C(=O)Nc2ccc3c(c2)OC(F)(F)O3)ccn1 | 
25 nM | 333 nM | CCNC(=O)c1cc(CNc2ccccc2C(=O)Nc2ccc3c(c2)OC(F)(F)O3)ccn1 | 
58 nM | 138 nM | CCN(CC)CCNC(=O)c1cc(CNc2ccccc2C(=O)Nc2ccc3c(c2)OC(F)(F)O3)ccn1 | 
37 nM | 110 nM | N#Cc1cc(CNc2ccccc2C(=O)Nc2ccc3c(c2)OC(F)(F)O3)ccn1 | 
27 nM | 100 nM | NC(=S)c1cc(CNc2ccccc2C(=O)Nc2ccc3c(c2)OC(F)(F)O3)ccn1 | 
42 nM | 175 nM | CCN(CC)CCCNC(=O)c1cc(CNc2ccccc2C(=O)Nc2ccc3c(c2)OC(F)(F)O3)ccn1 | 
13 nM | 104 nM | COCCNc1cc(CNc2ccccc2C(=O)Nc2ccc3c(c2)OC(F)(F)O3)ccn1 | 
95 nM | 2560 nM | O=C(Nc1ccc2c(c1)OC(F)(F)C(F)(F)O2)c1ncsc1NCc1ccncc1 | 
5 nM | 24 nM | CNC(=O)Nc1cc(CNc2ccccc2C(=O)Nc2ccc3c(c2)OC(F)(F)O3)ccn1 | 
9 nM | 142 nM | O=C(Nc1ccc2c(c1)OC(F)(F)O2)c1ccccc1NCc1ccnc(NCCCO)c1 | 
8 nM | 112 nM | O=C(Nc1ccc2c(c1)OC(F)(F)O2)c1ccccc1NCc1ccnc(NCCO)c1 | 
45 nM | 6830 nM | O=C(NCCCN1CCOCC1)c1cc(CNc2ccccc2C(=O)Nc2ccc3c(c2)OC(F)(F)O3)ccn1 | 
3 nM | 100 nM | CNc1cc(CNc2ccccc2C(=O)Nc2ccc3c(c2)OC(F)(F)O3)ccn1 | 
50 nM | 349 nM | CN(C)c1nccc(CNc2ccccc2C(=O)Nc2ccc3c(c2)OC(F)(F)O3)n1 | 
4 nM and 1 nM | 634 nM and 274 nM | Nc1cc(CNc2ccccc2C(=O)Nc2ccc3c(c2)OC(F)(F)O3)ccn1 | 

SMILES | IC50 [1] | IC50 [2] | also measured
O=C(Nc1ccc2c(c1)OC(F)(F)O2)c1ccccc1NCc1ccnc(NCCCn2ccnc2)c1 | 20 nM | 101 nM | 
CNC(=O)c1cc(CNc2ncsc2C(=O)Nc2ccc3c(c2)OC(F)(F)C(F)(F)O3)ccn1 | 12 nM | 192 nM | 
CNC(=O)c1cc(CNc2c(C(=O)Nc3ccc4c(c3)OC(F)(F)O4)cnn2C)ccn1 | 11 nM | 199 nM | 
CNC(=O)c1cc(CNc2ccsc2C(=O)Nc2ccc3c(c2)OC(F)(F)O3)ccn1 | 3 nM | 61 nM | 
O=C(Nc1ccc2c(c1)OC(F)(F)O2)c1ccccc1NCc1ccnc(NCCc2cnc[nH]2)c1 | 23 nM | 146 nM | 
CNC(=O)Nc1ccc(CNc2c(C(=O)Nc3ccc(SC(F)(F)F)cc3)cnn2C)cn1 | 17 nM | 154 nM | Cmax [11]: 3.6 µM; AUC(0-t) [6]: 11 µM·h; IC50 [7]: 62 nM
CC(=O)Nc1cc(CNc2ccccc2C(=O)Nc2ccc3c(c2)OC(F)(F)O3)ccn1 | 1 nM | 5 nM | 
O=C(NC1CC1)c1cc(CNc2ccccc2C(=O)Nc2ccc3c(c2)OC(F)(F)O3)ccn1 | 16 nM | 192 nM | 
O=C(Nc1ccc2c(c1)OC(F)(F)C(F)(F)O2)c1ccccc1NCc1ccncc1 | 19 nM | 40 nM | AUC [10]: 6 µM·h
O=C(NCc1ccccc1)Nc1cc(CNc2ccccc2C(=O)Nc2ccc3c(c2)OC(F)(F)O3)ccn1 | 48 nM | 232 nM | 
O=C(Nc1ccccc1)Nc1cc(CNc2ccccc2C(=O)Nc2ccc3c(c2)OC(F)(F)O3)ccn1 | 87 nM | 39 nM | 
O=C(Nc1ccc2c(c1)CCC2)Nc1cc(CNc2ccccc2C(=O)Nc2ccc3c(c2)OC(F)(F)O3)ccn1 | 240 nM | 64 nM | 
O=C(Nc1ccc2c(c1)OC(F)(F)O2)c1ccccc1NCc1ccnc(C2=NCCN2)c1 | 72 nM | 153 nM | 
